For experiment [1], the system named is Staphylococcus aureus V41. Put plainly: MIC, standard agar-dilution assay. In kind it is cell-based.
The test system of experiment [2] is Staphylococcus aureus X400. The experiment can be described thus: MIC, standard agar-dilution assay. In kind it is cell-based.
The test system of experiment [3] is Staphylococcus aureus S13E. In kind it is cell-based. To be noted: agar dilution. For orientation: In agar dilution, organisms are placed on agar that contains the substance at set levels.
Experiment [4] deals with Staphylococcus epidermidis EPI1. In kind it is cell-based. The conditions noted are these: agar dilution.
Experiment [5] deals with Staphylococcus epidermidis 222. The experiment can be described thus: MIC, standard agar-dilution assay. In kind it is cell-based.
The subject of experiment [6] is Streptococcus pyogenes C203. Put plainly: MIC, standard agar-dilution assay. In kind it is cell-based.
Experiment [7] relates to Streptococcus pneumoniae Park 1. In kind it is cell-based. The conditions noted are these: agar dilution.
Experiment [8] has as its system Streptococcus faecium ATCC 9790. The experiment can be described thus: MIC, standard agar-dilution assay. In kind it is cell-based.
Experiment [9] has as its system Streptococcus sp. group D 2041. Put plainly: MIC, standard agar-dilution assay. In kind it is cell-based.
Experiment [10] concerns Haemophilus influenzae C.L. The experiment can be described thus: MIC, standard agar-dilution assay. In kind it is cell-based.
Experiment [11] deals with Haemophilus influenzae 76. The experiment can be described thus: MIC, standard agar-dilution assay. In kind it is cell-based.
Experiment [12] deals with Escherichia coli N10. The experiment can be described thus: MIC, standard agar-dilution assay. In kind it is cell-based.
Experiment [13] relates to Escherichia coli EC14. The experiment can be described thus: MIC, standard agar-dilution assay. In kind it is cell-based.
The test system of experiment [14] is Escherichia coli TEM. The experiment can be described thus: MIC, standard agar-dilution assay. In kind it is cell-based.
Experiment [15] relates to Klebsiella pneumoniae X26. Put plainly: MIC, standard agar-dilution assay. In kind it is cell-based.
The test system of experiment [16] is Klebsiella pneumoniae X68. Put plainly: MIC, standard agar-dilution assay. In kind it is cell-based.
The subject of experiment [17] is Klebsiella pneumoniae KAE. Put plainly: MIC, standard agar-dilution assay. In kind it is cell-based.
For experiment [18], the system named is Staphylococcus aureus NRRL B313. The conditions noted are these: agar dilution.

Converted amounts (≈) assume the structure as drawn. A value given as a limit tells only on which side of the number the result lay.

The values that follow come from patent US4698327A, “Novel glycopeptide derivatives” (priority 1986, dated 1987).

On to `CCCCCNC1(C)CC(OC2C(Oc3c4cc5cc3Oc3ccc(cc3Cl)C(O)C3NC(=O)C(NC(=O)C5NC(=O)C(CC(N)=O)NC(=O)C(NC(=O)C(CC(C)C)NC)C(O)c5ccc(c(Cl)c5)O4)c4ccc(O)c(c4)-c4c(O)cc(O)cc4C(C(=O)O)NC3=O)OC(CO)C(O)C2O)OC(C)C1O` (stereo not drawn) [Compound 15, N^van --(n-pentyl)vancomycin], for which the MIC stood at 1 µg/mL (≈ 0.658 µM) in experiment [1]; 1 µg/mL (≈ 0.658 µM) in experiment [2]; 1 µg/mL (≈ 0.658 µM) in [3]; 2 µg/mL (≈ 1.32 µM) in experiment [4]; 1 µg/mL (≈ 0.658 µM) in [5]; 0.5 µg/mL (≈ 0.329 µM) in experiment [6]. The MIC in [7] was 0.125 µg/mL (≈ 0.0823 µM); in experiment [8] it was 1 µg/mL (≈ 0.658 µM); in experiment [9], 2 µg/mL (≈ 1.32 µM); in experiment [10], 128 µg/mL (≈ 84.2 µM); in experiment [11], 128 µg/mL (≈ 84.2 µM); in experiment [12], above 128 µg/mL. The MIC in experiment [13] is above 128 µg/mL; in [14] it was above 128 µg/mL; in [15], above 128 µg/mL; in experiment [16] it was above 128 µg/mL; in [17], above 128 µg/mL; in [18] it was 0.5 µg/mL (≈ 0.329 µM).

For the compound `CCCCNC1(C)CC(OC2C(Oc3c4cc5cc3Oc3ccc(cc3Cl)C(O)C3NC(=O)C(NC(=O)C5NC(=O)C(CC(N)=O)NC(=O)C(NC(=O)C(CC(C)C)NC)C(O)c5ccc(c(Cl)c5)O4)c4ccc(O)c(c4)-c4c(O)cc(O)cc4C(C(=O)O)NC3=O)OC(CO)C(O)C2O)OC(C)C1O` (stereo not drawn) [Compound 17, N^van --(n-butyl)vancomycin], the MIC was 1 µg/mL (≈ 0.664 µM) in experiment [1]; 1 µg/mL (≈ 0.664 µM) in experiment [2]; 1 µg/mL (≈ 0.664 µM) in [3]; 4 µg/mL (≈ 2.66 µM) in experiment [4]; 2 µg/mL (≈ 1.33 µM) in experiment [5]; 1 µg/mL (≈ 0.664 µM) in experiment [6]. In addition, the MIC in [7] is 0.5 µg/mL (≈ 0.332 µM); in [8] it was 2 µg/mL (≈ 1.33 µM); in experiment [9], 4 µg/mL (≈ 2.66 µM); in experiment [10] it was 128 µg/mL (≈ 85 µM); in experiment [11], 128 µg/mL (≈ 85 µM); in experiment [12], above 128 µg/mL. Moreover, the MIC in [13] is above 128 µg/mL; in [14], above 128 µg/mL; in experiment [15], above 128 µg/mL; in [16], above 128 µg/mL; in experiment [17], above 128 µg/mL; in [18] it was 1 µg/mL (≈ 0.664 µM).

For `CCCCNC1(C)CC(OC2C(Oc3c4cc5cc3Oc3ccc(cc3Cl)C(O)C(NC(=O)C(CC(C)C)N(C)CCCC)C(=O)NC(CC(N)=O)C(=O)NC5C(=O)NC3C(=O)NC(C(=O)NC(C(=O)O)c5cc(O)cc(O)c5-c5cc3ccc5O)C(O)c3ccc(c(Cl)c3)O4)OC(CO)C(O)C2O)OC(C)C1O` (stereo not drawn) [Compound 19, N^van, N^leu --di(n-butyl)vancomycin], the MIC in [1] came to 1 µg/mL (≈ 0.64 µM); in [2], 1 µg/mL (≈ 0.64 µM); in experiment [3] it was 1 µg/mL (≈ 0.64 µM); in experiment [4], 2 µg/mL (≈ 1.28 µM); in experiment [5], 1 µg/mL (≈ 0.64 µM); in experiment [6], 0.5 µg/mL (≈ 0.32 µM). The MIC in experiment [7] is 0.5 µg/mL (≈ 0.32 µM); in experiment [8], 1 µg/mL (≈ 0.64 µM); in experiment [9], 2 µg/mL (≈ 1.28 µM); in experiment [10], above 128 µg/mL; in experiment [11], 128 µg/mL (≈ 82 µM); in experiment [12], above 128 µg/mL. Moreover, the MIC in [13] was above 128 µg/mL; in experiment [14], above 128 µg/mL; in experiment [15] it was above 128 µg/mL; in experiment [16] it was above 128 µg/mL; in experiment [17], above 128 µg/mL; in experiment [18] it was 0.5 µg/mL (≈ 0.32 µM).

Take `CCCNC1(C)CC(OC2C(Oc3c4cc5cc3Oc3ccc(cc3Cl)C(O)C3NC(=O)C(NC(=O)C5NC(=O)C(CC(N)=O)NC(=O)C(NC(=O)C(CC(C)C)NC)C(O)c5ccc(c(Cl)c5)O4)c4ccc(O)c(c4)-c4c(O)cc(O)cc4C(C(=O)O)NC3=O)OC(CO)C(O)C2O)OC(C)C1O` (stereo not drawn) [Compound 20, N^van --(n-propyl)vancomycin]: the MIC in experiment [1] was 1 µg/mL (≈ 0.671 µM); in [2], 1 µg/mL (≈ 0.671 µM); in [3] it was 1 µg/mL (≈ 0.671 µM); in experiment [4], 4 µg/mL (≈ 2.68 µM); in experiment [5], 1 µg/mL (≈ 0.671 µM); in [6], 0.5 µg/mL (≈ 0.335 µM). Also, the MIC in experiment [7] was 0.5 µg/mL (≈ 0.335 µM); in experiment [8], 1 µg/mL (≈ 0.671 µM); in [9] it was 1 µg/mL (≈ 0.671 µM); in experiment [10], 128 µg/mL (≈ 85.8 µM); in [11], 128 µg/mL (≈ 85.8 µM); in experiment [12], above 128 µg/mL. For the same compound, the MIC in [13] is above 128 µg/mL; in [14], above 128 µg/mL; in [15], above 128 µg/mL; in experiment [16] it was above 128 µg/mL; in experiment [17] it was above 128 µg/mL; in [18] it was 1 µg/mL (≈ 0.671 µM).

`CCCNC1(C)CC(OC2C(Oc3c4cc5cc3Oc3ccc(cc3Cl)C(O)C(NC(=O)C(CC(C)C)N(C)CCC)C(=O)NC(CC(N)=O)C(=O)NC5C(=O)NC3C(=O)NC(C(=O)NC(C(=O)O)c5cc(O)cc(O)c5-c5cc3ccc5O)C(O)c3ccc(c(Cl)c3)O4)OC(CO)C(O)C2O)OC(C)C1O` (stereo not drawn) [Compound 22, N^van, N^leu --di(n-propyl)vancomycin]: the MIC was 2 µg/mL (≈ 1.3 µM) in experiment [1]; 2 µg/mL (≈ 1.3 µM) in experiment [2]; 2 µg/mL (≈ 1.3 µM) in experiment [3]; 4 µg/mL (≈ 2.61 µM) in [4]; 4 µg/mL (≈ 2.61 µM) in experiment [5]; 2 µg/mL (≈ 1.3 µM) in [6]. Moreover, the MIC was 1 µg/mL (≈ 0.652 µM) in experiment [7]; 2 µg/mL (≈ 1.3 µM) in [8]; 8 µg/mL (≈ 5.22 µM) in [9]; above 128 µg/mL in experiment [10]; 128 µg/mL (≈ 83.5 µM) in experiment [11]; above 128 µg/mL in [12]. Besides, the MIC in experiment [13] is above 128 µg/mL; in experiment [14], above 128 µg/mL; in [15], above 128 µg/mL; in experiment [16], above 128 µg/mL; in experiment [17], above 128 µg/mL; in [18] it was 2 µg/mL (≈ 1.3 µM).

With `CCNC1(C)CC(OC2C(Oc3c4cc5cc3Oc3ccc(cc3Cl)C(O)C(NC(=O)C(CC(C)C)N(C)CC)C(=O)NC(CC(N)=O)C(=O)NC5C(=O)NC3C(=O)NC(C(=O)NC(C(=O)O)c5cc(O)cc(O)c5-c5cc3ccc5O)C(O)c3ccc(c(Cl)c3)O4)OC(CO)C(O)C2O)OC(C)C1O` (stereo not drawn) [Compound 24, N^van, N^leu --diethylvancomycin], the MIC came out at 1 µg/mL (≈ 0.664 µM) in [1]; 2 µg/mL (≈ 1.33 µM) in [2]; 1 µg/mL (≈ 0.664 µM) in experiment [3]; 2 µg/mL (≈ 1.33 µM) in experiment [4]; 2 µg/mL (≈ 1.33 µM) in experiment [5]; 1 µg/mL (≈ 0.664 µM) in [6]. In addition, the MIC was 1 µg/mL (≈ 0.664 µM) in experiment [7]; 2 µg/mL (≈ 1.33 µM) in experiment [8]; 4 µg/mL (≈ 2.66 µM) in experiment [9]; below 128 µg/mL in experiment [10]; 128 µg/mL (≈ 85 µM) in experiment [11]; above 128 µg/mL in experiment [12]. The MIC in [13] is above 128 µg/mL; in experiment [14] it was above 128 µg/mL; in experiment [15], above 128 µg/mL; in experiment [16], above 128 µg/mL; in experiment [17], above 128 µg/mL; in [18] it was 1 µg/mL (≈ 0.664 µM).

For `CCCCCCCCCCNC1(C)CC(OC2C(Oc3c4cc5cc3Oc3ccc(cc3Cl)C(O)C3NC(=O)C(NC(=O)C5NC(=O)C(CC(N)=O)NC(=O)C(NC(=O)C(N)CC(C)C)C(O)c5ccc(c(Cl)c5)O4)c4ccc(O)c(c4)-c4c(O)cc(O)cc4C(C(=O)O)NC3=O)OC(CO)C(O)C2O)OC(C)C1O` (stereo not drawn) [Compound 26, N^van --(n-decyl)-A51568A], the MIC in experiment [1] is 0.25 µg/mL (≈ 0.159 µM); in experiment [2], 0.25 µg/mL (≈ 0.159 µM); in experiment [3], 0.25 µg/mL (≈ 0.159 µM); in [4] it was 0.5 µg/mL (≈ 0.317 µM); in [5], 0.25 µg/mL (≈ 0.159 µM); in [6], 0.25 µg/mL (≈ 0.159 µM). Moreover, the MIC in experiment [7] was 0.25 µg/mL (≈ 0.159 µM); in experiment [8], 0.5 µg/mL (≈ 0.317 µM); in experiment [9], 0.5 µg/mL (≈ 0.317 µM); in [10], 128 µg/mL (≈ 81.2 µM); in [11], 128 µg/mL (≈ 81.2 µM); in experiment [12] it was above 128 µg/mL. The MIC is above 128 µg/mL in [13]; above 128 µg/mL in experiment [14]; above 128 µg/mL in experiment [15]; above 128 µg/mL in experiment [16]; above 128 µg/mL in experiment [17]; 0.25 µg/mL (≈ 0.159 µM) in [18].
